From PubChem BioAssay (NCI) come the findings set out here.

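All cell lines were grown in 96-well plates and treated with compound for 48 hours. TGI: total growth inhibition.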

Test in all cases: inhibition of tumour cell growth, NCI panel, 48 h
Experiment [1] concerns COLO 205 colon.
The subject of experiment [2] is DU-145 prostate.
In experiment [3] the test system is EKVX NSCLC.
Experiment [4] concerns HT29 colon.
The test system of experiment [5] is KM12 colon.
Experiment [6] concerns MDA-MB-435.
For experiment [7], the system named is MDA-N.
For experiment [8], the system named is MOLT-4 leukemia.
The test system of experiment [9] is NCI-H226 lung.
For experiment [10], the system named is NCI-H460 lung.
Experiment [11] deals with PC-3 prostate.
Experiment [12] has as its system RPMI-8226 leukemia.
Experiment [13] relates to RXF 393 renal.
Experiment [14] has as its system SK-OV-3 ovarian.
Experiment [15] deals with SNB-75 CNS.
The subject of experiment [16] is SR leukemia.
Experiment [17] concerns UACC-257 melanoma.
For experiment [18], the system named is NCI-H522 lung.
Experiment [19] has as its system HCC-2998 colon.

As for `COc1cc(C2c3cc4c(cc3C(=O)C3CCC(=O)N32)OCO4)cc(OC)c1O` (stereo not given), the TGI in [1], in [2], in [3], in experiment [4], in experiment [5] and in [6] was above 50 µM in each case. For the same compound, the TGI in experiment [7], in experiment [8], in [9], in [10], in experiment [11] and in experiment [12] was above 50 µM throughout. In addition, the TGI in experiment [13], in experiment [14], in experiment [15], in [16] and in [17] was above 50 µM throughout.
On to `CCSC1=N/C(=C\c2ccco2)C(=O)N1`, for which the TGI in [1], in experiment [2], in [3], in [4], in [5] and in experiment [6] was above 100 µM each time. Moreover, the TGI in experiment [7], in experiment [8], in experiment [9], in experiment [18], in [11] and in experiment [12] was above 100 µM each time. Moreover, the TGI in experiment [14], in [15] and in [16] was above 100 µM each time.
In the case of `CCOC(=O)c1c[nH]c(C(=O)C=[N+]=[N-])c1C1CCN(CC)C1=S` (stereo not given), the TGI in experiment [1], in experiment [2], in [3], in [19], in experiment [4] and in experiment [5] was above 100 µM throughout. In addition, the TGI in experiment [6], in experiment [7], in [8], in [10], in experiment [18] and in experiment [11] was above 100 µM in each case. The TGI in experiment [12], in experiment [13], in experiment [14], in experiment [15] and in experiment [17] was above 100 µM each time.
Regarding `CC(=O)[C@H]1[C@H](O)C[C@@]2(C)[C@@H]3CCc4cc(O)c(OC5OC(CO)C(O)C(O)C5O)cc4C3(C)C(=O)C[C@]12C` (stereo not given in full), the TGI in [1], in [2], in [3], in experiment [19], in experiment [4] and in [5] was above 100 µM throughout. Further, the TGI in experiment [6], in experiment [7], in experiment [8], in experiment [9], in experiment [10] and in experiment [18] was above 100 µM throughout. The TGI in experiment [11], in experiment [13], in experiment [14], in experiment [15], in experiment [16] and in experiment [17] was above 100 µM throughout.
Take `Cn1nnc2c3c(N(CCO)CCO)ccnc3ccc21`: the TGI in experiment [1] is above 100 µM; in experiment [2], above 100 µM; in experiment [3], above 100 µM; in experiment [19], 91.2 µM; in [4] it was above 100 µM; in experiment [5], above 100 µM. Moreover, the TGI in [6], in experiment [7], in experiment [8], in experiment [10], in experiment [11] and in experiment [13] was above 100 µM throughout. Moreover, the TGI in experiment [14], in experiment [15], in [16] and in [17] was above 100 µM each time.
Turning to `Cc1ccc(S(=O)(=O)N/N=C2/CCC3(O)CC2(C)CCC2[C@H]3CC2(C)C)cc1` (stereo not given in full), the TGI in experiment [1] was 33.1 µM; in experiment [2] it was above 100 µM; in [3], above 100 µM; in [4], 99.5 µM; in [5], above 100 µM; in [6], 57.7 µM. For the same compound, the TGI amounted to 92 µM in experiment [7]; 45.2 µM in experiment [8]; 70.9 µM in experiment [9]; 64.3 µM in experiment [10]; 91.9 µM in [18]; 65.1 µM in [11]. Besides, the TGI in experiment [12] was above 100 µM; in experiment [14], above 100 µM; in [15], 87.3 µM; in experiment [16], above 100 µM; in experiment [17], above 100 µM.
With `O=C(NCCNCCNC(=O)c1cc(-c2ccccc2)nc2ccccc12)c1cc(-c2ccccc2)nc2ccccc12`, the TGI was determined as 3.8 µM in experiment [1]; 6.56 µM in experiment [2]; 11.7 µM in [3]; 3.14 µM in experiment [19]; 3.24 µM in [4]; 4.03 µM in [5]. In addition, the TGI was 3.34 µM in experiment [6]; 3.42 µM in experiment [7]; 5.52 µM in experiment [8]; 9.16 µM in experiment [9]; 2.97 µM in experiment [10]; 6.97 µM in experiment [18]. The TGI turned out to be 8.88 µM in experiment [11]; 3.56 µM in experiment [13]; 17.7 µM in [14]; 3.99 µM in [15]; 5.37 µM in experiment [16]; 3.92 µM in experiment [17].
`C1CSCC2(COC2)CSCCSCC2(COC2)CS1`: the TGI in experiment [1], in [2], in [3], in experiment [19], in experiment [4] and in experiment [5] was above 100 µM each time. Moreover, the TGI in [6], in [7], in experiment [8], in experiment [10], in [18] and in experiment [11] was above 100 µM in each case. For the same compound, the TGI in [14], in [15], in [16] and in experiment [17] was above 100 µM in each case.
As for `CCCCCCCCCCCCCCCCNC(=O)/C(=C\c1ccc(Cl)c(Cl)c1)NC(=O)c1ccccc1`, the TGI in experiment [1] was above 100 µM; in experiment [2], 70.7 µM; in [3], above 100 µM; in experiment [4] it was above 100 µM; in experiment [5], above 100 µM; in [6], above 100 µM. The TGI in experiment [7] was above 100 µM; in [8], 37.5 µM; in [9], 56.8 µM; in experiment [10], above 100 µM; in [18] it was above 100 µM; in experiment [11] it was 74.6 µM. Further, the TGI was 58.5 µM in [12]; 31.8 µM in experiment [13]; above 100 µM in experiment [14]; 33.1 µM in [15]; 90.7 µM in experiment [16]; above 100 µM in [17].
With `O=C(Cn1c2ccc(Br)cc2c2nc3ccccc3nc21)Nc1ccccc1`, the TGI in experiment [1], in [2], in [19], in [4], in [5] and in experiment [6] was above 100 µM in each case. The TGI in experiment [7] was above 100 µM; in experiment [8], above 100 µM; in experiment [9] it was 82.7 µM; in experiment [10], above 100 µM; in experiment [18], 40.5 µM; in experiment [11] it was 46.5 µM. For the same compound, the TGI in [12] was above 100 µM; in [13], 68.7 µM; in [14] it was above 100 µM; in experiment [15], 89.4 µM; in experiment [17] it was above 100 µM.
Consider `Nc1ccccc1C(=O)N=Nc1c(O)[nH]c2ccccc12`, for which the TGI in [1], in [2], in experiment [3], in experiment [19], in experiment [4] and in [5] was above 100 µM each time. Moreover, the TGI in experiment [6], in experiment [7], in experiment [8], in experiment [9], in [10] and in experiment [18] was above 100 µM each time. Moreover, the TGI in experiment [11] was above 100 µM; in experiment [13], above 100 µM; in [14], above 100 µM; in experiment [15] it was 81 µM; in experiment [16] it was above 100 µM; in experiment [17], above 100 µM.
With `O=[N+]1[C@H](c2ccccc2)[C@H](c2ccccc2)N1[O-]`, the TGI is 37.9 µM in [1]; 30.1 µM in experiment [2]; 33.8 µM in experiment [3]; 33.1 µM in experiment [4]; 45.3 µM in experiment [5]; 34.3 µM in [6]. For the same compound, the TGI in experiment [7] was 30.7 µM; in experiment [8], 55.2 µM; in [9], 38.9 µM; in experiment [10] it was 43.2 µM; in [18], 24.2 µM; in experiment [11], 31.6 µM. Besides, the TGI in experiment [12] stood at 25.4 µM; in experiment [13] it was 28.3 µM; in experiment [14], 96.5 µM; in experiment [15], 37.2 µM; in experiment [16] it was 37.7 µM; in [17], 26.3 µM.
